Source: US11274106B2, “Topoisomerase inhibitors with antibacterial and anticancer activity” (THE BOARD OF TRUSTEES OF THE UNIVERSITY OF ILLINOIS, priority 2017, dated 2022)
Converted amounts (≈) assume the structure as drawn.

Experiments:
Top2cc = molecular target: T1, Top2cc (Homo sapiens, UniProt P11388); assay: ICE assay for Top2α-DNA complexes in H460 cells; type: cell-based
T1 construct: endogenous in cells; host or cells: H460
Source text: (§1) FIG. 3. DNM derivatives are dual Top1/Top2 inhibitors with different modes of inhibition. (a) Inhibition of decatenating ability of Top2α with increasing concentrations of ETP, 6DNM-NH3, 6DNM-Pyr, and Ph-6DNM-NH3. K, kinetoplast DNA; OC, open circular; R, relaxed. (b) Inhibition of relaxing ability of Top1 with increasing concentrations of CPT, 6DNM-NH3, 6DNM-Pyr, and Ph-6DNM-NH3. R, relaxed; S, supercoiled. (c) Detection of Top2a-DNA using the ICE Assay. Genomic DNA ([…]) of H460 cells treated with drugs (50 μM, 30 min) was applied to nitrocellulose membrane and immunoblotted for Top2a. (d) Detection of Top1-DNA adducts using ICE Assay. Same procedure as (c) using 1 μg of DNA. (e) Inhibition of ETP-induced poisoning of Top2a. H460 cells treated with indicated concentrations of inhibitor for 30 min prior to treatment with ETP (50 μM). Detection of Top2α as in (c).
(§2) The in vivo complex of enzyme (ICE) assay can be used to distinguish poisons from catalytic inhibitors. The ICE assay consists of isolating the genomic DNA of cells treated with small molecules in a manner the preserves covalent DNA-protein complexes and applying it to nitrocellulose membranes. Because topoisomerase poisons stabilize the cleavage complexes, DNA-protein complexes can be detected by immunoblotting for specific topoisomerases, whereas catalytic inhibitors produce no such result. To determine if DNM derivatives are acting as poisons or catalytic inhibitors, H460 human lung cells were exposed to 50 μM of the Top2 poison ETP, Ph-6DNM-NH3, 6DNM-NH3, and 6DNM-Pyr and assessed for their ability to stabilize Top2cc. […] In a similar fashion, next investigated was the mode of Top1 inhibition using the ICE assay (FIG. 3b).

Top1 [1] = molecular target: T2, Top1 (Homo sapiens, UniProt P11387); assay: Top1 DNA relaxation assay (pBR322); type: biochemical; conditions: supercoiled pBR322, FIG. 3b
T2 sequence (P11387 1-765): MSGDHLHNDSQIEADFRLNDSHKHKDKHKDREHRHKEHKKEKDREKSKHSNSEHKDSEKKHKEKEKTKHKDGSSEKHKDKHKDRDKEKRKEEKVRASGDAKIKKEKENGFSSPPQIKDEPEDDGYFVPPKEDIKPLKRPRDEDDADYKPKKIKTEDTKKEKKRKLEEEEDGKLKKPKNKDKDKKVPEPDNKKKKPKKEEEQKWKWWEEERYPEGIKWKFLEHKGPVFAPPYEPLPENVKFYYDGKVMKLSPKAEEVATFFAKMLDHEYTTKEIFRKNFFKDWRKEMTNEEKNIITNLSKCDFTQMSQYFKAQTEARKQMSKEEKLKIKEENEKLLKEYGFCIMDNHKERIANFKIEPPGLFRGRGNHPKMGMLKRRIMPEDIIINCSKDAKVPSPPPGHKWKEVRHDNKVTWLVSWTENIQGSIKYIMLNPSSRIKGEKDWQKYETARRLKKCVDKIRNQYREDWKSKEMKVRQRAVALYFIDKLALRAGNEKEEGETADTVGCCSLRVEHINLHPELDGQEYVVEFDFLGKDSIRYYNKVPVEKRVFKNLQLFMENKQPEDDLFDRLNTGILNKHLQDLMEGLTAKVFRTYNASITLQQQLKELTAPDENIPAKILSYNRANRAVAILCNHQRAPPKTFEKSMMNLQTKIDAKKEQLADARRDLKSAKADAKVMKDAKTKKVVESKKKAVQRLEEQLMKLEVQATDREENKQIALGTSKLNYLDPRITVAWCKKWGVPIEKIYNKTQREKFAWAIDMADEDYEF
Source text: as §1
To further investigate any mechanistic differences between these structurally related DNM analogues they were also evaluated against the other clinically-targeted mammalian topoisomerase, Top1, using a DNA relaxation assay in which purified Top1 relaxes supercoiled pBR322 and the two forms are separated by agarose gel electrophoresis.

Top2α = Top2α (Homo sapiens, UniProt P11388); assay: Top2α kDNA decatenation assay; type: biochemical; conditions: gel electrophoresis, FIG. 3a
Source text: as §1
FIG. 9. Mechanism of action studies: Topoisomerases form transient covalent complexes with DNA to modify DNA topology. Ph6DNM-NH3 and 6DNM-NH3 inhibit bacterial DNA gyrase and human topoisomerase II in vitro.
The ability of Ph-6DNM-NH3, 6DNM-NH3, and 6DNM-Pyr to inhibit Top2α was assessed using a decatenation assay. In this assay, Top2α is incubated with kinetoplast DNA (kDNA), a large network of catenated minicircles and maxicircles of DNA. As Top2α decatenates the kDNA, it releases supercoiled and relaxed DNA minicircles that are easily separated from the kDNA by gel electrophoresis.

E. coli TopoIV = E. coli TopoIV (Escherichia coli, UniProt P0AFI2+P20083); assay: E. coli TopoIV decatenation assay; type: biochemical
Source text: (§3) FIG. 8. In vitro inhibitory activity of 6DNM-NH3, Ph-6DNM-NH3 against E. coli DNA gyrase and TopoIV.
(§4) DNM and its derivatives exert their antibacterial effects through inhibition of the DNA Gyrase.

Top1cc = molecular target: T3, Top1cc (Homo sapiens, UniProt P11387); assay: ICE assay for Top1-DNA adducts in H460 cells; type: cell-based
T3 construct: endogenous in cells; host or cells: H460
T3 sequence (P11387 2-765 limits assumed): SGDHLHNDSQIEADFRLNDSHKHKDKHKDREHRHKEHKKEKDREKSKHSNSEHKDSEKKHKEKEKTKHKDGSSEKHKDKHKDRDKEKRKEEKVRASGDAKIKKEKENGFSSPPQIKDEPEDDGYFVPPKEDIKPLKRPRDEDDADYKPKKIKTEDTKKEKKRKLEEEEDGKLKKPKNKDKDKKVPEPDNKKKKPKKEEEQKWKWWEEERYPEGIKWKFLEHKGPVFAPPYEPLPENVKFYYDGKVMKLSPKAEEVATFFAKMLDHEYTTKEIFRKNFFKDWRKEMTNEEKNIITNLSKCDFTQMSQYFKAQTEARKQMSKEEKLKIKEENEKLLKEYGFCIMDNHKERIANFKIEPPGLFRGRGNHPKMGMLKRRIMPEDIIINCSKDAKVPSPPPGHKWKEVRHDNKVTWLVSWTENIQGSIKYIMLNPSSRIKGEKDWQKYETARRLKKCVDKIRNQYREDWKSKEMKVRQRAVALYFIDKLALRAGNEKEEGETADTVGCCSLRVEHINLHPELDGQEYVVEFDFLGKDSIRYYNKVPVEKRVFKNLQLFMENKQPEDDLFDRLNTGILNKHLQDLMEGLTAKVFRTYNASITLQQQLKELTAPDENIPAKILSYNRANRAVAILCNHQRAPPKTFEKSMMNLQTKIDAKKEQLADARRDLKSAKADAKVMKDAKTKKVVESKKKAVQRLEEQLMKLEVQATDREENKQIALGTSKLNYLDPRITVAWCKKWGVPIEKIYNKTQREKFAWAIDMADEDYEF
Source text: as §1, §2

E. coli = assay: Antibacterial MIC, microbroth dilution, E. coli; type: cell-based
Procedure: (§5) To investigate this possibility, the antibacterial effects of the DNM derivatives was assessed against strains of E. coli, S. aureus, and MRSA using the microbroth dilution method (Table 2).

[2] = system: MDA-MB-231 triple negative breast cancer cells; assay: Antiproliferative SRB assay, MDA-MB-231; type: cell-based; conditions: SRB assay
Procedure: FIG. 1. […] Cell death measured by SRB assay after 72 hour of compound exposure (n≥3 biological replicates, error bars show SEM). IC50 values given as mean±SEM from ≥3 biological replicates.
To investigate the feasibility of developing a class of antitumor antibiotics based upon the DNM scaffold, the ability of the DNM to exert an antiproliferative effect against MDA-MB-231 breast cancer cells was evaluated.

S. aureus = assay: Antibacterial MIC, microbroth dilution, S. aureus; type: cell-based
Procedure: as §5

E. coli DNA Gyrase = E. coli DNA Gyrase (Escherichia coli, UniProt P0AES4+P0AES6); assay: E. coli DNA Gyrase supercoiling assay; type: biochemical
Source text: as §3, §4

MRSA = assay: Antibacterial MIC, microbroth dilution, MRSA; type: cell-based, S. aureus; conditions: Staphylococcus aureus, MRSA; microbroth dilution
Procedure: as §5

Top1 [3] = molecular target: T2, Top1; assay: Top1 degradation by Western blot, BT-474; type: cell-based; conditions: 50 μM for 2, 4, and 6 hours, then 30-minute drug-free media
Procedure: (§6) FIG. 4. Level of Top1-degradation predicts cell line sensitivity. (a) Cells treated with 25 μM of compound for indicated times followed by a 30 minute incubation with drug-free media. Cells were lysed with RIPA and Top1 levels assessed by Western Blot. (b) Degradation of Top1 results in a right-ward shift in the dose-response curve. Effect is most pronounced in Top1-poisons (Ph-6DNM-NH3, CPT) than Top1 catalytic inhibitor (6DNM-Pyr). Cell death measured by SRB assay after 72 hour of compound exposure (n≥3 biological replicates, error bars show SEM).
(§7) This difference in mechanism of action between Ph-6DNM-NH3 and 6DNM-Pyr may provide an explanation of the differences in cell line sensitivities between the different DNM derivatives. […] This downregulation serves as a resistance mechanism and the level of Top1 degradation is correlated with reduced sensitivity to CPT. To determine if a similar mechanism is responsible for the reduced sensitivity to Ph-6DNM-NH3 and its derivatives in certain cell lines, the effects of Ph-6DNM-NH3 and 6DNM-Pyr were compared to that of CPT in […] and BT-474, two cancer cell lines known to be deficient and proficient in Top1 degradation, respectively. Cells were treated with 50 μM Ph-6DNM-NH3, 6DNM-Pyr, or CPT for 2, 4, and 6 hours. Following a 30-minute incubation with drug-free media to allow for the reversal of any Top1cc formed, cells were lysed and Top1 concentrations assessed by Western blot (FIG. 4a).

Top1 [4] = molecular target: T2, Top1; assay: Top1 degradation by Western blot, MDA-MB-231; type: cell-based; design: dose or concentration left out as unconfirmed; conditions: 4, and 6 hours, then 30-minute drug-free media
Procedure: as §6, §7

BT-474 = assay: Antiproliferative SRB assay, BT-474; type: cell-based; conditions: FIG. 4b, 72 hour
Source text: Topoisomerase inhibitors such as DOX are used as single agent and in combination therapy to treat a wide-range of cancer types.

T1 sequence (P11388 whole entry): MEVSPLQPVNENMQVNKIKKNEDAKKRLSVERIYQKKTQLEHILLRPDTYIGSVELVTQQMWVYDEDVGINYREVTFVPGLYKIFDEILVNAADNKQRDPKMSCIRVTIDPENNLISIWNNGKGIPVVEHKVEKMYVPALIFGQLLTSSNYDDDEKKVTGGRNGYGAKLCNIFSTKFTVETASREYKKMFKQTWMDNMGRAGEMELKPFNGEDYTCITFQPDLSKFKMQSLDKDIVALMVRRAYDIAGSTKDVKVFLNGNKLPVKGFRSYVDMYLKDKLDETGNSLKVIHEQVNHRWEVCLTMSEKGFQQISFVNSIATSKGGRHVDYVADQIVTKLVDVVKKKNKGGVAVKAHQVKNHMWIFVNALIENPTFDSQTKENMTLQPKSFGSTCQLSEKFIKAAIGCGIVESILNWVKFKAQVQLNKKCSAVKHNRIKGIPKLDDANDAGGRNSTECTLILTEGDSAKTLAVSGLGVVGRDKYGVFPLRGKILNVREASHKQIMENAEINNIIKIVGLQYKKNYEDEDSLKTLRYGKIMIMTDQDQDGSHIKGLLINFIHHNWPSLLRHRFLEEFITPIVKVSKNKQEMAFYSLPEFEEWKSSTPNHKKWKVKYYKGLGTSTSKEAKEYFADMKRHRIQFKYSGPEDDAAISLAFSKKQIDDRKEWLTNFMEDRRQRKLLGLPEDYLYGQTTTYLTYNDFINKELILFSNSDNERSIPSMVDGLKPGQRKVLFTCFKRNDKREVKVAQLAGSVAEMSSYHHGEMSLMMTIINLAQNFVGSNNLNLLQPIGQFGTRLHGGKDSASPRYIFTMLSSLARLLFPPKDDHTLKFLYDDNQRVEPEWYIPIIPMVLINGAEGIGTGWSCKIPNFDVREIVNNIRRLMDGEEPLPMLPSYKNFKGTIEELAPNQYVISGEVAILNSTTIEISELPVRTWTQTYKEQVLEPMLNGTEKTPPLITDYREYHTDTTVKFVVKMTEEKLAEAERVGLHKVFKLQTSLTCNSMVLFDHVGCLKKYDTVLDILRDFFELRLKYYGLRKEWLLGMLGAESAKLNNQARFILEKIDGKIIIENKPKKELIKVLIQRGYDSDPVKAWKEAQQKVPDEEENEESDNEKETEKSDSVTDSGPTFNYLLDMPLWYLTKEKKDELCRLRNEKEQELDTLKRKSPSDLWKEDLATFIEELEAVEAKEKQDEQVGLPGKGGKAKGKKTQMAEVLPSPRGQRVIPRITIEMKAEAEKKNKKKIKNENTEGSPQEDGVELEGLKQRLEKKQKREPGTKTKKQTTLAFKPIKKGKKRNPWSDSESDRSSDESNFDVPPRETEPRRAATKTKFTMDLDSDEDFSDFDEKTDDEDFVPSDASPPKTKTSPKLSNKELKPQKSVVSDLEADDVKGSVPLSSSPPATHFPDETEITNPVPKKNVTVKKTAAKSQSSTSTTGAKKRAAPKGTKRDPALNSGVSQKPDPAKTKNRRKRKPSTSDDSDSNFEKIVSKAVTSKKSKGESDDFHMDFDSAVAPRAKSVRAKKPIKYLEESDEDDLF
Chain of E. coli TopoIV (P0AFI2 whole entry): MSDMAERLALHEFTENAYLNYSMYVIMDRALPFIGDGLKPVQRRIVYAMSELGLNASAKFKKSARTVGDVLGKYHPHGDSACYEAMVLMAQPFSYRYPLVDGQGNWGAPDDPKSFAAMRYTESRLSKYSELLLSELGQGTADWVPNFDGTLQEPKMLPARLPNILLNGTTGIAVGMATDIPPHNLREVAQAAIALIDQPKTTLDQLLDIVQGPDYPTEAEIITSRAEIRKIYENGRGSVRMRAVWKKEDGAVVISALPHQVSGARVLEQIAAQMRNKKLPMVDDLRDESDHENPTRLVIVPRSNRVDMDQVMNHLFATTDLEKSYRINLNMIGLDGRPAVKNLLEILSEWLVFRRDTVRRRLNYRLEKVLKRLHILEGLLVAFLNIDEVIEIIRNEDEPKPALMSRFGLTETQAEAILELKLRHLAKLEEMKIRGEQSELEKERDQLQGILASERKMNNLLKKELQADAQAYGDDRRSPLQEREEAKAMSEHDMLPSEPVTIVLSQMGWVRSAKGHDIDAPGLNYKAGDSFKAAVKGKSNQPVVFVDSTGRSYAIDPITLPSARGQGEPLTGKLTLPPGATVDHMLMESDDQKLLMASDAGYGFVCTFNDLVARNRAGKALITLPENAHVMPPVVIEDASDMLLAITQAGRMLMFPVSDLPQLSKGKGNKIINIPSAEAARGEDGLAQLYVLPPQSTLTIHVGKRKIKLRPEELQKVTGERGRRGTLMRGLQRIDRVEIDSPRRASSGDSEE
Chain of E. coli TopoIV (P20083 whole entry): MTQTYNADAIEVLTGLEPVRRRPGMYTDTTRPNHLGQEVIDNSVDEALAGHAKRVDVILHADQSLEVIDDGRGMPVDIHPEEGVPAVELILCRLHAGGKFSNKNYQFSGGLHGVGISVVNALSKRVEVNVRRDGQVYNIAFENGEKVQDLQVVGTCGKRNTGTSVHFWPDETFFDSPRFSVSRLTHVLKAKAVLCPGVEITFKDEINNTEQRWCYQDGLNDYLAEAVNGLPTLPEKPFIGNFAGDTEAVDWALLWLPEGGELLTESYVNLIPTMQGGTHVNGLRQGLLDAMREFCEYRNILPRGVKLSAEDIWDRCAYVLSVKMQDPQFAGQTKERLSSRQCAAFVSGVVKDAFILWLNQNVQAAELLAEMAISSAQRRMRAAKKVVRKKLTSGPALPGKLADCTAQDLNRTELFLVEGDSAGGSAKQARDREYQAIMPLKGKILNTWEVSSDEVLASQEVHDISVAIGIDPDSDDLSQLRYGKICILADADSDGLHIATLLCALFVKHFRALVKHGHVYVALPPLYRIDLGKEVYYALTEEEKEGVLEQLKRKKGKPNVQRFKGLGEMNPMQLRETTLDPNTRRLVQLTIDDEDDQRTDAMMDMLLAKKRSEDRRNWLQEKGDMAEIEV
Chain of Top2α (P11388 whole entry): as the sequence (P11388 whole entry) above
Chain of E. coli DNA Gyrase (P0AES4 whole entry, one chain of several): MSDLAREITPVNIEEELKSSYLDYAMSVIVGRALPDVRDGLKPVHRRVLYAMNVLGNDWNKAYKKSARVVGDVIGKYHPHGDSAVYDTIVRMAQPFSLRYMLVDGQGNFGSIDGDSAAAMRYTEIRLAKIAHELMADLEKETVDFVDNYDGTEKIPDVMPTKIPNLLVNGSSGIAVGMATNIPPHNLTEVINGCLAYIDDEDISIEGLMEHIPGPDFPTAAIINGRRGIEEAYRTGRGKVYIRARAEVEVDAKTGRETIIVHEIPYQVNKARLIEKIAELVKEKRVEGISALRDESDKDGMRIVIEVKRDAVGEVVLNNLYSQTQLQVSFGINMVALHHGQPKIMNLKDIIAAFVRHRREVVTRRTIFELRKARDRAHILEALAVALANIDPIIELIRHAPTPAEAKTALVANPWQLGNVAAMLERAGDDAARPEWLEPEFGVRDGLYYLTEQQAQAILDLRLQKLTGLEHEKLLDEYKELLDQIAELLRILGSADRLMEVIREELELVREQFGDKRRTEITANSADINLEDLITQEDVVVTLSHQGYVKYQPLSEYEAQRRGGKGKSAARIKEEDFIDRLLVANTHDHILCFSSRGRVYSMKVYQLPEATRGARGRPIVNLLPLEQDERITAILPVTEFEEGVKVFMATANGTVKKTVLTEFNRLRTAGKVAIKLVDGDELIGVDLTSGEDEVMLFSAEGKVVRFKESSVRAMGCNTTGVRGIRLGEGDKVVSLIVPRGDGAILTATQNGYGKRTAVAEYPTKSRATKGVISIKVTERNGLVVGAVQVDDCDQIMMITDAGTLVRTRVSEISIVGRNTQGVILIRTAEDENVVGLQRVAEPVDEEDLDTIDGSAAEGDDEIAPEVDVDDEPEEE

Structure (SMILES) | Accumulation of Top2cc (ICE assay) (Top2cc; 50 μM) | Effect on ETP-induced Top2cc (Top2cc; pre-treatment 30 minutes prior to ETP (50 μM)) | Inhibition of Top1 relaxation (Top1 [1]) | Inhibition of decatenating function of Top2α (Top2α) | Inhibition of purified E. coli TopoIV (E. coli TopoIV) | Accumulation of Top1cc (ICE assay) (Top1cc; H460 cells, 50 μM, 30 min) | Mode of topoisomerase inhibition (Top1cc; in vitro and cell culture experiments taken together) | E. coli MIC (E. coli) [mg/L] | IC50 ([2]; 72 hour compound exposure, mean ± SEM, read-out: MDA-MB-231 IC50) [µM] | S. aureus MIC (S. aureus) [mg/L] | Inhibition of purified E. coli DNA Gyrase (E. coli DNA Gyrase) | MIC (MRSA) [mg/L] | Top1 levels by Western blot in BT-474 (Top1 [3]) | Antiproliferative effect against MDA-MB-231 cells ([2]; FIG. 1, 72 hour) | Top1 levels by Western blot in MDA-MB-231 (Top1 [4]) | Effectiveness in BT-474 after Top1 degradation (BT-474)
Cc1cc(=O)n(C)c2c3c4c(cc12)c(C)cc(=O)n4C(CN)CO3 (stereo not shown) [Compound 9] | only ETP treatment resulted in the accumulation of Top2cc | dose-dependent decrease in ETP-induced Top2cc | inhibit relaxation at submicromolar concentrations | inhibit the decatenating function of Top2α in a dose-dependent manner | able to inhibit | neither 6DNM-NH3 nor 6DNM-Pyr, leads to the accumulation of Top1cc | dual Top1/Top2α catalytic inhibitors | 0.5 | 0.22 ± 0.02 | 0.5 | able to inhibit | 0.03 (≈ 0.0922 µM) |  |  |  | 
CC[C@@]1(O)C(=O)OCc2c1cc1n(c2=O)Cc2cc3ccccc3nc2-1 [CPT, camptothecin, reference compound] |  |  |  |  |  |  |  |  |  |  |  |  | time-dependent decrease in the levels of Top1 | sensitive | minimal differences in Top1 relative to untreated cells | nearly complete resistance
